Experimental data from PubChem BioAssay (NCI).
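Assay format: 96-well plates, 48-hour exposure. At the TGI there is no net growth.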

What was measured:
Assay in all cases: inhibition of tumour cell growth, NCI panel, 48 h
COLO 205 colon = system: COLO 205 colon
M19-MEL melanoma = system: M19-MEL melanoma
SNB-75 CNS = system: SNB-75 CNS
K-562 leukemia = system: K-562 leukemia
OVCAR-4 ovarian = system: OVCAR-4 ovarian
SR leukemia = system: SR leukemia
DLD-1 colon = system: DLD-1 colon
SNB-78 CNS = system: SNB-78 CNS
KM12 colon = system: KM12 colon
SK-MEL-28 melanoma = system: SK-MEL-28 melanoma
UACC-257 melanoma = system: UACC-257 melanoma
CAKI-1 renal = system: CAKI-1 renal
MALME-3M melanoma = system: MALME-3M melanoma
SN12C renal = system: SN12C renal
IGROV1 ovarian = system: IGROV1 ovarian
SK-MEL-5 melanoma = system: SK-MEL-5 melanoma
HCT-116 colon = system: HCT-116 colon
NCI-H522 lung = system: NCI-H522 lung
LXFL 529 NSCLC = system: LXFL 529 NSCLC
DMS 114 small cell lung = system: DMS 114 small cell lung
M14 melanoma = system: M14 melanoma
EKVX NSCLC = system: EKVX NSCLC
RXF-631 renal = system: RXF-631 renal
SK-MEL-2 melanoma = system: SK-MEL-2 melanoma
CCRF-CEM leukemia = system: CCRF-CEM leukemia
A549 NSCLC = system: A549 NSCLC
XF 498 CNS = system: XF 498 CNS
HT29 colon = system: HT29 colon
SNB-19 CNS = system: SNB-19 CNS
DMS 273 small cell lung = system: DMS 273 small cell lung
SF-539 CNS = system: SF-539 CNS
SW-620 colon = system: SW-620 colon
HL-60(TB) leukemia = system: HL-60(TB) leukemia
SF-268 CNS = system: SF-268 CNS
LOX IMVI melanoma = system: LOX IMVI melanoma
HCC-2998 colon = system: HCC-2998 colon
HOP-62 NSCLC = system: HOP-62 NSCLC
NCI-H23 lung = system: NCI-H23 lung
OVCAR-3 ovarian = system: OVCAR-3 ovarian
786-0 renal = system: 786-0 renal
HOP-92 NSCLC = system: HOP-92 NSCLC
SK-OV-3 ovarian = system: SK-OV-3 ovarian
RPMI-8226 leukemia = system: RPMI-8226 leukemia
OVCAR-8 ovarian = system: OVCAR-8 ovarian
UACC-62 melanoma = system: UACC-62 melanoma
UO-31 renal = system: UO-31 renal
TK-10 renal = system: TK-10 renal
SF-295 CNS = system: SF-295 CNS

Measured: TGI

O=C(c1ccccc1)C1S(=O)(=O)OCCOS1(=O)=O
> 100 µM: COLO 205 colon | M19-MEL melanoma | SNB-75 CNS | K-562 leukemia | OVCAR-4 ovarian | SR leukemia | DLD-1 colon | SNB-78 CNS | KM12 colon | SK-MEL-28 melanoma | UACC-257 melanoma | CAKI-1 renal | MALME-3M melanoma | SN12C renal | IGROV1 ovarian | SK-MEL-5 melanoma | HCT-116 colon | NCI-H522 lung | LXFL 529 NSCLC | DMS 114 small cell lung | M14 melanoma | EKVX NSCLC | RXF-631 renal | SK-MEL-2 melanoma | CCRF-CEM leukemia | A549 NSCLC | XF 498 CNS | HT29 colon | SNB-19 CNS | DMS 273 small cell lung | SF-539 CNS | SW-620 colon | HL-60(TB) leukemia | SF-268 CNS | LOX IMVI melanoma | HCC-2998 colon | HOP-62 NSCLC | NCI-H23 lung | OVCAR-3 ovarian | 786-0 renal | HOP-92 NSCLC | SK-OV-3 ovarian | RPMI-8226 leukemia | OVCAR-8 ovarian | UACC-62 melanoma | UO-31 renal | TK-10 renal | SF-295 CNS
